Test results taken from PubChem BioAssay (NCI).
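The compound was tested at five concentrations on cells cultured in 96-well plates, with a 48-hour exposure period. TGI marks complete inhibition of growth.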

system: HOP-62 NSCLC; experiment: NCI anticancer screen, dose series, 48 h

Structure (SMILES) | TGI
COc1ccc(N=NC(=O)NC(CC(C)C)C(=O)NC(CC(C)C)C(=O)O)cc1 (stereo unspecified) | > 100 µM
CC(C)=NNC1=NC(C)(C)P(=O)(NNc2ncccn2)S1 (stereo unspecified) | > 100 µM
NC12CC3C4CC5(N)CC3C(C1)C(C5)C4C2 | > 100 µM
C[n+]1c2ccccc2c2/c(=C\C#N)c3ccccc3n21 | 8.17 µM
COc1cc(/C=N/NC(=O)c2c(Cl)c(Cl)c(Cl)c(Cl)c2-c2nc3ccccc3[nH]2)ccc1O | 75.8 µM

system: HOP-92 NSCLC; experiment: NCI anticancer screen, dose series, 48 h

Structure (SMILES) | TGI
COc1ccc(N=NC(=O)NC(CC(C)C)C(=O)NC(CC(C)C)C(=O)O)cc1 (stereo unspecified) | > 100 µM
CC(C)=NNC1=NC(C)(C)P(=O)(NNc2ncccn2)S1 (stereo unspecified) | > 100 µM
NC12CC3C4CC5(N)CC3C(C1)C(C5)C4C2 | > 100 µM
COc1cc(/C=N/NC(=O)c2c(Cl)c(Cl)c(Cl)c(Cl)c2-c2nc3ccccc3[nH]2)ccc1O | 33.4 µM

system: HS 578T breast; experiment: NCI anticancer screen, dose series, 48 h

Structure (SMILES) | TGI
COc1ccc(N=NC(=O)NC(CC(C)C)C(=O)NC(CC(C)C)C(=O)O)cc1 (stereo unspecified) | > 100 µM
CC(C)=NNC1=NC(C)(C)P(=O)(NNc2ncccn2)S1 (stereo unspecified) | > 100 µM
NC12CC3C4CC5(N)CC3C(C1)C(C5)C4C2 | > 100 µM
C[n+]1c2ccccc2c2/c(=C\C#N)c3ccccc3n21 | > 100 µM
COc1cc(/C=N/NC(=O)c2c(Cl)c(Cl)c(Cl)c(Cl)c2-c2nc3ccccc3[nH]2)ccc1O | > 100 µM

system: HT29 colon; experiment: NCI anticancer screen, dose series, 48 h

Structure (SMILES) | TGI
COc1ccc(N=NC(=O)NC(CC(C)C)C(=O)NC(CC(C)C)C(=O)O)cc1 (stereo unspecified) | > 100 µM
CC(C)=NNC1=NC(C)(C)P(=O)(NNc2ncccn2)S1 (stereo unspecified) | > 100 µM
NC12CC3C4CC5(N)CC3C(C1)C(C5)C4C2 | > 100 µM
C[n+]1c2ccccc2c2/c(=C\C#N)c3ccccc3n21 | 16.5 µM
COc1cc(/C=N/NC(=O)c2c(Cl)c(Cl)c(Cl)c(Cl)c2-c2nc3ccccc3[nH]2)ccc1O | 62.9 µM

system: IGROV1 ovarian; experiment: NCI anticancer screen, dose series, 48 h

Structure (SMILES) | TGI
COc1ccc(N=NC(=O)NC(CC(C)C)C(=O)NC(CC(C)C)C(=O)O)cc1 (stereo unspecified) | > 100 µM
CC(C)=NNC1=NC(C)(C)P(=O)(NNc2ncccn2)S1 (stereo unspecified) | > 100 µM
NC12CC3C4CC5(N)CC3C(C1)C(C5)C4C2 | > 100 µM
C[n+]1c2ccccc2c2/c(=C\C#N)c3ccccc3n21 | 12.2 µM
COc1cc(/C=N/NC(=O)c2c(Cl)c(Cl)c(Cl)c(Cl)c2-c2nc3ccccc3[nH]2)ccc1O | > 100 µM

system: K-562 leukemia; experiment: NCI anticancer screen, dose series, 48 h

Structure (SMILES) | TGI
COc1ccc(N=NC(=O)NC(CC(C)C)C(=O)NC(CC(C)C)C(=O)O)cc1 (stereo unspecified) | 80.3 µM
CC(C)=NNC1=NC(C)(C)P(=O)(NNc2ncccn2)S1 (stereo unspecified) | > 100 µM
NC12CC3C4CC5(N)CC3C(C1)C(C5)C4C2 | > 100 µM
C[n+]1c2ccccc2c2/c(=C\C#N)c3ccccc3n21 | > 100 µM
COc1cc(/C=N/NC(=O)c2c(Cl)c(Cl)c(Cl)c(Cl)c2-c2nc3ccccc3[nH]2)ccc1O | > 100 µM

system: KM12 colon; experiment: NCI anticancer screen, dose series, 48 h

Structure (SMILES) | TGI
COc1ccc(N=NC(=O)NC(CC(C)C)C(=O)NC(CC(C)C)C(=O)O)cc1 (stereo unspecified) | > 100 µM
NC12CC3C4CC5(N)CC3C(C1)C(C5)C4C2 | > 100 µM
C[n+]1c2ccccc2c2/c(=C\C#N)c3ccccc3n21 | 31.7 µM
COc1cc(/C=N/NC(=O)c2c(Cl)c(Cl)c(Cl)c(Cl)c2-c2nc3ccccc3[nH]2)ccc1O | 74.9 µM

system: LOX IMVI melanoma; experiment: NCI anticancer screen, dose series, 48 h

Structure (SMILES) | TGI
COc1ccc(N=NC(=O)NC(CC(C)C)C(=O)NC(CC(C)C)C(=O)O)cc1 (stereo unspecified) | > 100 µM
NC12CC3C4CC5(N)CC3C(C1)C(C5)C4C2 | > 100 µM
C[n+]1c2ccccc2c2/c(=C\C#N)c3ccccc3n21 | 16.6 µM
COc1cc(/C=N/NC(=O)c2c(Cl)c(Cl)c(Cl)c(Cl)c2-c2nc3ccccc3[nH]2)ccc1O | 61.1 µM

system: M14 melanoma; experiment: NCI anticancer screen, dose series, 48 h

Structure (SMILES) | TGI
COc1ccc(N=NC(=O)NC(CC(C)C)C(=O)NC(CC(C)C)C(=O)O)cc1 (stereo unspecified) | > 100 µM
CC(C)=NNC1=NC(C)(C)P(=O)(NNc2ncccn2)S1 (stereo unspecified) | > 100 µM
NC12CC3C4CC5(N)CC3C(C1)C(C5)C4C2 | > 100 µM
C[n+]1c2ccccc2c2/c(=C\C#N)c3ccccc3n21 | 18.6 µM
COc1cc(/C=N/NC(=O)c2c(Cl)c(Cl)c(Cl)c(Cl)c2-c2nc3ccccc3[nH]2)ccc1O | 90.9 µM

system: MALME-3M melanoma; experiment: NCI anticancer screen, dose series, 48 h

Structure (SMILES) | TGI
COc1ccc(N=NC(=O)NC(CC(C)C)C(=O)NC(CC(C)C)C(=O)O)cc1 (stereo unspecified) | > 100 µM
NC12CC3C4CC5(N)CC3C(C1)C(C5)C4C2 | > 100 µM
C[n+]1c2ccccc2c2/c(=C\C#N)c3ccccc3n21 | 7.55 µM
COc1cc(/C=N/NC(=O)c2c(Cl)c(Cl)c(Cl)c(Cl)c2-c2nc3ccccc3[nH]2)ccc1O | 52.9 µM

system: MCF7 breast; experiment: NCI anticancer screen, dose series, 48 h

Structure (SMILES) | TGI
COc1ccc(N=NC(=O)NC(CC(C)C)C(=O)NC(CC(C)C)C(=O)O)cc1 (stereo unspecified) | > 100 µM
CC(C)=NNC1=NC(C)(C)P(=O)(NNc2ncccn2)S1 (stereo unspecified) | > 100 µM
NC12CC3C4CC5(N)CC3C(C1)C(C5)C4C2 | > 100 µM
C[n+]1c2ccccc2c2/c(=C\C#N)c3ccccc3n21 | 21.7 µM
COc1cc(/C=N/NC(=O)c2c(Cl)c(Cl)c(Cl)c(Cl)c2-c2nc3ccccc3[nH]2)ccc1O | 44.7 µM

system: MDA-MB-231 breast; experiment: NCI anticancer screen, dose series, 48 h

Structure (SMILES) | TGI
CC(C)=NNC1=NC(C)(C)P(=O)(NNc2ncccn2)S1 (stereo unspecified) | > 100 µM
NC12CC3C4CC5(N)CC3C(C1)C(C5)C4C2 | > 100 µM
C[n+]1c2ccccc2c2/c(=C\C#N)c3ccccc3n21 | 82.3 µM

system: MDA-MB-435; experiment: NCI anticancer screen, dose series, 48 h

Structure (SMILES) | TGI
COc1ccc(N=NC(=O)NC(CC(C)C)C(=O)NC(CC(C)C)C(=O)O)cc1 (stereo unspecified) | > 100 µM
CC(C)=NNC1=NC(C)(C)P(=O)(NNc2ncccn2)S1 (stereo unspecified) | > 100 µM
NC12CC3C4CC5(N)CC3C(C1)C(C5)C4C2 | > 100 µM
C[n+]1c2ccccc2c2/c(=C\C#N)c3ccccc3n21 | 28.1 µM
COc1cc(/C=N/NC(=O)c2c(Cl)c(Cl)c(Cl)c(Cl)c2-c2nc3ccccc3[nH]2)ccc1O | 91.7 µM

system: MDA-N; experiment: NCI anticancer screen, dose series, 48 h

Structure (SMILES) | TGI
COc1ccc(N=NC(=O)NC(CC(C)C)C(=O)NC(CC(C)C)C(=O)O)cc1 (stereo unspecified) | > 100 µM
CC(C)=NNC1=NC(C)(C)P(=O)(NNc2ncccn2)S1 (stereo unspecified) | > 100 µM
NC12CC3C4CC5(N)CC3C(C1)C(C5)C4C2 | > 100 µM
C[n+]1c2ccccc2c2/c(=C\C#N)c3ccccc3n21 | 18.6 µM
COc1cc(/C=N/NC(=O)c2c(Cl)c(Cl)c(Cl)c(Cl)c2-c2nc3ccccc3[nH]2)ccc1O | 75.7 µM

system: MOLT-4 leukemia; experiment: NCI anticancer screen, dose series, 48 h

Structure (SMILES) | TGI
COc1ccc(N=NC(=O)NC(CC(C)C)C(=O)NC(CC(C)C)C(=O)O)cc1 (stereo unspecified) | > 100 µM
CC(C)=NNC1=NC(C)(C)P(=O)(NNc2ncccn2)S1 (stereo unspecified) | > 100 µM
